Source: article PMC8171317, “Total synthesis, isolation, surfactant properties, and biological evaluation of ananatosides and related macrodilactone-containing rhamnolipids” (Chemical Science, 2021)
Marks after values point to notes of the source that are not given here.

Legend:
[1] = Emulsifying activity against hydrocarbon contaminants; type: physicochemical; conditions: cyclohexane and kerosene
Description: Therefore, the emulsifying properties of microbial biosurfactants 1–3 were evaluated against light as well as heavy hydrocarbon contaminants such as cyclohexane and kerosene, respectively (see Fig. S7 ^†).

sheep blood erythrocytes = test: Hemolytic activity; type: cell-based; conditions: sheep blood erythrocytes; 1 h, 37 °C; max tested 200 μM
Description: Owing to their surfactant properties, glycolipids can break the membrane of red blood cells causing hemolytic activity.[18] To understand if the cytotoxicity of macrolactones 1, 4, 5β, and 6β was due to their surface tension activity, we evaluated the hemolytic potential of synthetic glycolipids 1–6 against sheep erythrocytes (Table 5). […] The non-cytotoxic rhamnolipid 3 was also found to exert a weak hemolytic activity (HC50 = 65 ± 6 μM). […]
Hemolytic Activity. The hemolytic activity of the synthetic surfactants was evaluated as previously described with small modifications.10 Defibrinated sheep blood (Oxoid) was centri fuged at 1000 × g for 5 min. The pellet containing erythrocytes was washed once and suspended in 1X PBS to obtain a 1% erythrocytes suspension. All samples were suspended in DMSO/PBS (5:1 v/v) and serially diluted in a 96 -well plate to obtain a range of co ncentrations from 1 mM to 7.8 µM.
The erythrocytes suspension (160 µL) was added to 40 µL of samples to obtain final concentrations […]
ranging between 200 µM and 1.56 µM. Triton X-100 was used as a positive hemolysis control.
The plate was then incubated at 37 °C with agitation at 150 rpm for 1 h and centrifuged at 1500 × g for 5 min. The supernatant was transferred in an empty plate and absorbance was measured at 540 nm using a Cytation3 microplate reader (Biotek). HC50 was calculated in comparison with the positive control. The experiment was performed in triplicate and repeated three times. […]

[2] = Cytotoxicity, resazurin assay; type: cell-based, human; conditions: human, max tested 200 μM
Description: As the anticancer potential of microbial rhamnolipids has previously been reported,[16] we next sought to evaluate the in vitro cytotoxicity of our synthetic and natural glycolipids 1–6 against cancerous cell lines, i.e., human lung carcinoma (A549) and colorectal adenocarcinoma (DLD-1). The compounds were also tested against human normal skin fibroblasts (WS1) to estimate their selectivity towards cancer cells.
4. Experimental Procedures for Biological Evaluation and Surfactant Properties. […]
Cell Culture. Human lung carcinoma (A549), human colorectal adenocarcinoma (DLD-1), and human normal skin fibroblasts (WS1) cell lines were obtained from the American Type Culture Collection (ATCC). All cell lines were cultured in minimum essential medium containing Earle’s […]
salts and L-glutamine (Mediatech Cellgro, VA), to which were added 10% foetal bovine serum (Hyclone), vitamins (1×), penicillin (100 IU•mL-1), streptomycin (100 µg•mL−1), essential amino acids (1×), and sodium pyruvate (1×) (Mediatech Cellgro, VA). Cells were kept at 37 °C in a humidified environment containing 5% CO2.
Cytotoxicity Assay. Exponentially growing A549, DLD-1 or WS1 cells were plated in 96-well microplates (Costar, Corning Inc.) at a density of 5 × 10^3 cells per well in 100 µL of culture medium and were allowed to adhere for 16 h prior treatment. Increasing concentrations of each compound in biotech DMSO (Sigma-Aldrich) were then added (100 µL per well) and the cells were incubated for 48 h. The final concentration of DMSO in the culture medium was maintained at 0.5% (v/v) to avoid solvent toxicity. Cytotoxicity was assessed using resazurin9 on an automated 96-well Fluoroskan Ascent F1TM plate reader (Labsystems) using excitation and emission wavelengths of 530 and 590 nm, respectively. Fluorescence was proportional to the cellular metabolic activity in each well. Survival percentage was defined as the fluorescence in experimental wells as compared to that in control wells after subtraction of blank values. Each experiment was carried out three times in triplicate. IC50 results were expressed as means ± standard deviation. […]

[3] = Surface tension and CMC, Fisher tensiometer, du Noüy ring method; type: physicochemical; parameters: γ CMC (surface tension at CMC): unit not given here; conditions: pH 7.0; synthetic samples
Description: Biosurfactants are molecules that can associate with each other leading to the formation of micelles. They can also interact with surfaces between phases of different polarity such as the air/water or oil/water interface.[77] To gain quantitative insights into the surface-active properties of microbial glycolipids, the surface tensions at CMC (γCMC) of ananatoside A (1) and ananatoside B (2) were measured using a Fisher tensiometer by means of the du Noüy ring method. The CMC, referring to the concentration of surfactant at which micelles start to form, was determined from a plot of surface tension again each concentration. […] Consequently, the surface tension measurements were performed quickly to avoid the precipitation of ananatoside A (1) into the aqueous medium.

[4] = DLD-1 colorectal adenocarcinoma cells

## CCCCCCC[C@@H]1CC(=O)OC[C@H]2O[C@@H](O[C@H](CCCCCCC)CC(=O)O1)[C@H](O)[C@@H](O)[C@@H]2O [Compound 1, ananatoside A]
[1]
  Emulsifying activity: unable to form any emulsion
Sheep blood erythrocytes
  Hemolysis (HC50 in μM) Erythrocytes: 12.3 ± 0.3 µM
[2]; A549 lung carcinoma cells
  IC50 at 48 h: 50 ± 7 µM
[2]; [4]
  IC50 at 48 h: 58 ± 2 µM
[2]; WS1 normal skin fibroblasts
  IC50 at 48 h: 52 ± 4 µM
[3]
  CMC (critical micelle concentration): 43 ± 2 µM
  γ CMC (surface tension at CMC): 37 ± 1

## CCCCCCC[C@H](CC(=O)O)OC(=O)C[C@@H](CCCCCCC)O[C@@H]1O[C@H](CO)[C@@H](O)[C@H](O)[C@H]1O [Compound 2, ananatoside B]
[1]
  Emulsifying activity: equally able to generate emulsions with cyclohexane and kerosene
Sheep blood erythrocytes
  Hemolysis (HC50 in μM) Erythrocytes: >200 ^d μM
[2]; A549 lung carcinoma cells
  IC50 at 48 h: > 200 µM
[2]; [4]
  IC50 at 48 h: > 200 µM
[2]; WS1 normal skin fibroblasts
  IC50 at 48 h: > 200 µM
[3]
  CMC (critical micelle concentration): 63 ± 2 µM
  γ CMC (surface tension at CMC): 28 ± 1
